The test system of data set [1] is Hooded Wistar rat model of dopaminergic neurodegeneration. Briefly: Intranigral LPS-induced neuroinflammatory model, dopaminergic neuron counts. Format: in vivo, Hooded Wistar male rats. As to conditions: unilateral LPS, 2 mg/kg i.p. daily for 2 weeks, t-test p<0.05, FIG. 5. The procedure: Hooded Wistar male rats weighing between 300-400 g were obtained from Adelaide Laboratory Animal Services.
Unilateral infusions: Rats receiving a unilateral injection of 2 μL of 1.5 mg/mL solution of LPS (O55:B5, Sigma) in the substantia nigra were anaesthetized with isofluorane and positioned in a stereotaxic frame. For all rats, holes were drilled into the skull above the appropriate targeted structures according to the following coordinates: −5.3 mm posterior; ±2.0 mm lateral; −8.0 mm ventral to bregma.
Immunohistochemical procedures: two weeks after the lesion, the rats were transcardially perfused with PBS followed by PFA 4%. Brains were post-fixed in PFA 4%, and coronal sections of 30 μm containing the substantia nigra were collected and washed 3×0.01 M phosphate-buffered saline at pH 7.4. (PBS) for 10 minutes. Dopaminergic neurons were stained with anti-tyrosine hydroxylase (TH) antibody 1:10000 and visualized using nickel-enhanced 3,3′-diaminobenzidine (DAB) and counted manually.

A further data set concerns the target T1, Rat Brain Tissue MAO-B (Rattus norvegicus, UniProt P19643).
T1 construct: Brain tissue was homogenized in ice-cold Tris buffer; from tissue; host or cells: brain of Sprague Dawley rats (mitochondrial extract)
T1 sequence (P19643 1-520): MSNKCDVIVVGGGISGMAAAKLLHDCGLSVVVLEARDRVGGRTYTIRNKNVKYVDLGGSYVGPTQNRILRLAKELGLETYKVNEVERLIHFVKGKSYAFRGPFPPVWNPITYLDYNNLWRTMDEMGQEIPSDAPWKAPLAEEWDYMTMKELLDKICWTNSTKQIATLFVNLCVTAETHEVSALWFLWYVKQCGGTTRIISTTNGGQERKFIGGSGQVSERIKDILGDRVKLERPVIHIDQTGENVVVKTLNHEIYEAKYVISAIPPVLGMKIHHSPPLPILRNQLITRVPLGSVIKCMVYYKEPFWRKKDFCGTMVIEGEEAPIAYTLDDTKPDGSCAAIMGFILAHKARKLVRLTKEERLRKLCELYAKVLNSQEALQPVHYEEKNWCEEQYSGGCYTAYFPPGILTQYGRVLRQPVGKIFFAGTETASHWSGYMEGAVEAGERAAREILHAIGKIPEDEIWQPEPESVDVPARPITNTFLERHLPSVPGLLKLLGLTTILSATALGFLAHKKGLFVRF
The data set is described as follows: Rat brain tissue MAO-B activity after oral administration. As to conditions: single oral dose 0.6 mg/kg, Sprague Dawley rat brain tissue, FIG. 3. The format is in vivo, Sprague Dawley rats. The procedure: Sprague Dawley rats were orally administered the compound under study and sacrificed at various time points and gonadal fat and brain tissue collected.
Brain tissue was homogenized in ice-cold Tris buffer (10 mM Tris·HCl, 0.5 mM EDTA, sucrose 250 mM, pH 7.4). Homogenate was then centrifuged at 4,000 rpm for 3 minutes at 4° C. The resultant supernatant was transferred and centrifuged again at 4,000 rpm for 3 minutes at 4° C. Process repeated one last time, this time at 10,000 rpm for 8 minutes. Supernatant discarded and the resultant pellet containing the mitochondrial extract re-suspended in 0.1 M sodium phosphate buffer solution (1:3 ratio). MAO-B activity was determined by using a specific MAO-A inhibitor (e.g. clorgyline) and a SSAO/VAP-1 inhibitor (e.g. semicarbazide) to establish the high signal. Low signal was established as for the adipose tissue assay.
Activity of the treated samples was analyzed using the fluorometric method described in EXAMPLE 9 for SSAO/VAP-1 activity and EXAMPLE 10 for MAO-B.

A further data set addresses T2, Recombinant human MAO-B (Homo sapiens, UniProt P27338).
T2 construct: purchased Sigma Aldrich
T2 sequence (P27338 1-520): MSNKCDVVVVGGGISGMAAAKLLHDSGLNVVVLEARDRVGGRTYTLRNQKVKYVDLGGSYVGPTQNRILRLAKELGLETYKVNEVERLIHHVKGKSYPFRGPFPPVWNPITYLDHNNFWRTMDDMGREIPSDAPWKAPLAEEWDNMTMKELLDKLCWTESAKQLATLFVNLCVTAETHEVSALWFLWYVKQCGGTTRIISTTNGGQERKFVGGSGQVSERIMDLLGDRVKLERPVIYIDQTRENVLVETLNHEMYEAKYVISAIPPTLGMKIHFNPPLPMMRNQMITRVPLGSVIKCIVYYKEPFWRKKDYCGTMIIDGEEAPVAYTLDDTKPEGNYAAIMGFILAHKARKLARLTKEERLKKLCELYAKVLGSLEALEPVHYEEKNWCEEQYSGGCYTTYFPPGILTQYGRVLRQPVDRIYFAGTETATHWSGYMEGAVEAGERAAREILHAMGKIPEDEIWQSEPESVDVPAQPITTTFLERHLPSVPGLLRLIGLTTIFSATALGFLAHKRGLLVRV
The data set is described as follows: Inhibition of human recombinant MAO-B. The format is biochemical. As to conditions: incubation time of 2 hours, benzylamine 100 μM. The procedure:
Method to Determine the Ability of Compounds of Formula I to Inhibit Human Recombinant MAO-B
The ability of the compounds of this invention to inhibit MAO-B activities in vitro was tested. Recombinant human MAO-B (0.06 mg/mL; Sigma Aldrich) was used as source of MAO-B enzyme activities.

For the next data set, the system named is phospholipidosis. The data set is described as follows: Phospholipidosis cell-based fluorescence assay. The note with it: concentrations up to 100 μM. The procedure:
Assessment of the Potential of Compound 1 to Induce Phospholipidosis in a Cell-Based Fluorescence Assay.
Compound 1 was tested in vitro for the potential to induce phospholipidosis according to the method outlined by Fujimura et. al. (Experimental and Toxicologic Pathology, 2007, 58, 375-382) at concentrations up to 100 μM.

The nature of data set [2]: Stability of Compound 1 in a grape syrup formulation. Format: physicochemical. The procedure: Methylparahydroxybenzoate (126.2 mg), propylparahydroxybenzoate (20.0 mg), sodium phosphate monobasic (1%, 1.0 g) and saccharose (16.56 g) were dissolved in 100 mL purified water, vortexed for 10 min, followed by sonication for 30 min, and then filtered through a 0.45 μm filter. pH adjusted to pH 5 using 0.5 M NaOH. To 50 mL of the resultant solution was added grape flavor (LorAnnOils, 0180-0800; 1%, 0.5 mL), followed by 50 mg of Compound 1 to attain a final concentration of 1 mg/mL. Split into two 25 mL portions, one frozen, and one left at room temperature (rt) in a sealed falcon tube.

Where a name gives a salt, the structure may show the parent alone.

Regarding `NC/C(=C\F)C1Cc2ccccc2O1` (single isomer, unassigned; (-)) [PXS-5131, (−)-(E)-2-(2,3-Dihydrobenzofuran-2-Yl)-3-Fluoroprop-2-En-1-Amine Hydrochloride], in data set [1], the “loss of dopaminergic neurons (TH-positive) in substantia nigra” value is “significant protection from loss”. Besides, the “duration of inhibition of MAO-B enzyme activity” value at Rat Brain Tissue MAO-B is reported as “greater than 24 hours”.

For the compound `N#Cc1ccc(OC/C(=C/F)CN)cc1` [Compound 1, (E)-4-((2-(aminomethyl)-3-fluoroallyl)oxy) benzonitrile], on Recombinant human MAO-B, the IC50 was less than 50 nM. Besides, in the data set on phospholipidosis, the “effect on cell viability” value is listed as “no effect” and the “effect on the cellular phenotype (phospholipidosis)” value is “no effect”. The “degradation in grape syrup formulation” value in data set [2] (91 days at room temperature) is “no discernible degradation”. Besides, the “Purity of Compound 1 stored at rt for 91 days as measured by HPLC/area under the curve at 265 nm” value in data set [2] (grape syrup formulation 1 mg/mL, pH 5, rt, 91 days) is 99.785%. In addition, in data set [2] (grape syrup formulation 1 mg/mL, pH 5, −20° C., 91 days), the “Purity of Compound 1 stored at −20° C. for 91 days as measured by HPLC/area under the curve at 265 nm” value turned out to be 99.781%.

These data come from patent US12428370B2, “Haloallylamine dual amine oxidase inhibitors” (Syntara Limited, priority 2020, dated 2025).
